# Laboratory results as given in article PMC13083723 (Patterns, 2026).
# “And” between values parts separate entries of the source, which are not always exact repeats. Equal values may be shown once. Where a name gives a salt, the structure may show the parent alone. Read-outs that look alike come from different tables or passages of the source.
# What was measured:
# Vero-E6 cells = experiment: cells; assay type: cell-based; conditions: for activation at 10 µM: Chlorocebus sabaeus, Vero C1008, 24 h
# A549-ACE2 cells = experiment: cells; assay type: cell-based; conditions: for activation at 10 µM: A549-ACE2, 24 h, read-out: PLD_Effect(%) A549-ACE2
# [1] = cited from earlier work
# [2] = read-out: PLD_Effect(%) VERO-E6
# [3] = value is the negative log10 of mol/L
Structure (SMILES),activation at 10 µM (Vero-E6 cells; [2]) [%],activation at 10 µM (A549-ACE2 cells) [%],also measured
CCN(CCCc1ccccc1)CCCc1ccccc1 [ALVERINE CITRATE],58.9,63.7,AC50 [1]: 29 nM
OCCN1CCN(CC/C=C2/c3ccccc3Sc3ccc(C(F)(F)F)cc32)CC1 [Flupentixol],83.6,81.9,Log IC50 (value) [1]: -8.65; pchembl_value (Log IC50) [1]: 8.65
CN(C(=O)Cc1ccc(Cl)c(Cl)c1)[C@H](CN1CCCC1)c1ccccc1 [ICI-199441],53.5,99.8,"IC50 ([1]; read-out: IC50 (value)): 26 nM; pchembl_value (IC50) [1, 3]: 7.58"
Cn1ncc(Cl)c1-c1cc(C(=O)N[C@H](CN)Cc2cccc(F)c2)sc1Cl [Afuresertib],69.5,77.1,"Ki ([1]; read-out: Ki (value)): 0.08 nM; pchembl_value (IC50) [1, 3]: 10.10 and 8.70 and 8.59; pchembl_value (Ki) [1, 3]: 10.10"
N[C@H]1CC[C@H](N[C@@H]2C[C@H]2c2ccccc2)CC1 [ORY-1001 (RG-6016) 2HCl],65.7,98.4,Ki [1]: 50 nM; pchembl_value [1]: 9.85 and 7.30 and 7.48
CN1CCCN(C(c2ccccc2)c2ccc(Cl)cc2)CC1 (stereo not shown) [Homochlorcyclizine?2HCl],82.5,69.6,pchembl_value (AC50) [1]: 6.64 and 7.14 and 6.83
C[C@@H]1CN(CCCn2c3ccccc3c3ccccc32)C[C@H](C)N1 [rimcazole],99.9,109,"Log IC50 (value) [1]: -6.23; pchembl_value (Log IC50) [1]: 6.23; Ki ([1]; read-out: Ki (value)): 908 nM; pchembl_value (Ki) [1, 3]: 6.04"
O=S(=O)(NCCNC/C=C/c1ccc(Br)cc1)c1cccc2cnccc12 [H-89],60.8,98.9,"IC50 ([1]; read-out: IC50 (value)): 590 nM; Kd ([1]; read-out: Kd (value)): 24 nM; pchembl_value (Kd) [1, 3]: 7.62"
Clc1ccc(C(OCCN2CCCCC2)c2ccccc2)cc1 (stereo not shown) [CLOPERASTINE HYDROCHLORIDE],63.9,72.5,pchembl_value (AC50) [1]: 6.48; AC50 ([1]; read-out: AC50 (value)): 331 nM
CCCCCCCCC(=O)N[C@H](CN1CCCC1)[C@H](O)c1ccc2c(c1)OCCO2 [Genz-123346 (free base)],63.4,81.6,"IC50 ([1]; read-out: IC50 (value)): 9 nM; pchembl_value (IC50) [1, 3]: 8.05"
CNCC[C@H](Oc1cccc2ccccc12)c1cccs1 [DULOXETINE HYDROCHLORIDE],92.6,91.5,IC50 [1]: 440 nM
CC(C)c1cnn2c(NCc3ccccc3)cc(NCCCCCCN)nc12 [BS-181],53.6,63.8,IC50 ([1]; read-out: IC50 (value)): 21 nM
CC(CN1c2ccccc2Sc2ccccc21)N(C)C (stereo not shown) [PROMETHAZINE HYDROCHLORIDE],55.4,96.5,AC50 [1]: 30 nM
Clc1ccc2c(c1)N=C(N1CCNCC1)c1ccccc1N2 [desmethylclozapine],77.7,89.5,
CN1C2CCC1CC(OC(c1ccc(F)cc1)c1ccc(F)cc1)C2 (stereo not shown),61.5,76.3,"Log 1/Ki (value) [1]: 7.86; pchembl_value (Log 1/Ki) [1]: 7.86; pchembl_value (Ki) [1, 3]: 6.84 and 6.07 and 7.94"
"O[C@H]([C@H](O)[C@@H]1CO1)[C@H]1CO1 [VAL-083, reference compound]",,,result_ITMP (Vero-E6 cells): -1.6 percent effect; result_KI (A549-ACE2 cells): -10.5072 percent effect
Cc1nc2ccc(Oc3ccc(F)cc3)cc2c(=O)n1C[C@H]1CCCN(C(C)C)C1 [YIL-781],56.3,52.7,
CNCCC(Oc1ccc(C(F)(F)F)cc1)c1ccccc1 (stereo not shown) [FLUOXETINE HYDROCHLORIDE],54.3,109,pchembl_value (AC50) [1]: 7.03 and 7.53
"O=C1NC(=O)c2cc(Nc3ccccc3)c(Nc3ccccc3)cc21 [CGP-52411, reference compound]",,,result_ITMP (Vero-E6 cells): -7.23 percent effect; activation at 10 µM (Vero-E6 cells; read-out: PL_Result): -10.9%; result_KI (A549-ACE2 cells): -10.8674 percent effect

Structure (SMILES),activation at 10 µM (Vero-E6 cells; [2]) [%],activation at 10 µM (A549-ACE2 cells) [%],also measured
Cn1ncc(Cl)c1-c1cc(C(=O)N[C@H](CN)Cc2ccc(F)c(F)c2)oc1Cl [Uprosertib],82.6,92,"IC50 ([1]; read-out: IC50 (value)): 339 nM; pchembl_value (IC50) [1, 3]: 6.47"
c1ccc2c(CCNc3ccc(Nc4ccncc4)cc3)c[nH]c2c1 [JNJ 26854165 (Serdemetan)],74,88.4,
O=C(NCCN1CCC2(CC1)C(=O)NCN2c1cccc(F)c1)c1ccc2ccccc2c1 [VU-0364739],55.1,113,"IC50 ([1]; read-out: IC50 (value)): 20 nM; pchembl_value (IC50) [1, 3]: 7.70"
CCCOC(C(=O)OC1CCN(C)CC1)(c1ccccc1)c1ccccc1 [Propiverine Hydrochloride],63.8,102,pchembl_value (AC50) [1]: 6.08 and 6.12; AC50 ([1]; read-out: AC50 (value)): 830 nM and 750 nM
CCn1c2ccccc2c2cc(CNCc3ccccc3OC)ccc21 [HLCL-61 (hydrochloride)],56.5,83,
CC(=O)c1ccc2c(c1)N(CCCN1CCN(CCO)CC1)c1ccccc1S2 [ACETOPHENAZINE MALEATE],74.4,52.6,
CN1CCCC(n2nc(Cc3ccc(Cl)cc3)c3ccccc3c2=O)CC1 (stereo not shown) [AZELASTINE HYDROCHLORIDE],57.2,57.3,"pIC50 (value) [1]: 7.0; pchembl_value (AC50) [1]: 7.62; pchembl_value (pIC50) [1]: 7.00; AC50 ([1]; read-out: AC50 (value)): 24 nM; IC50 ([1]; read-out: IC50 (value)): 1000 nM; pchembl_value (IC50) [1, 3]: 6.00"
COc1cc(CN(CCN)C(=O)c2cccs2)ccc1OCc1ccccc1 [M8-B],85.4,72.2,
Cc1[nH]c2ccc(Cl)cc2c1C1=CCNCC1 [EMD-386088],96.8,79.1,
CN1CCN(C(=O)CN[C@@H]2C[C@H]2c2ccc(OCc3ccccc3)cc2)CC1 [RN-1],87.7,70.6,"pchembl_value (IC50) [1, 3]: 8.51 and 6.29"
O=C(Nc1ncc(SCCN2CCCC2)s1)[C@]1(c2ccc(S(=O)(=O)C3CC3)cc2)C[C@H]1C1CCCCC1 [LY2608204],55.8,95.6,
CCn1c2ccccc2c2cc(CNC)ccc21 [PhiKan-083],73.3,83.6,
C[C@@H](O[C@H]1OCCN(Cc2nn[nH]c2CN(C)C)[C@H]1c1ccc(F)cc1)c1cc(C(F)(F)F)cc(C(F)(F)F)c1 [L-760735],71.2,107,
COc1cc2c(NC3CCN(C(C)C)CC3)nc(C3CCCCC3)nc2cc1OCCCN1CCCC1 [UNC0638],60.7,112,"pchembl_value (type IC50), Histone-lysine N-methyltransferase, H3 lysine-9 specific 3 [1]: 7.26 and 7.82 and 7.92; pchembl_value (type IC50), Histone-lysine N-methyltransferase, H3 lysine-9 specific 5 [1]: 7.72; pchembl_value (type Ki), Histone-lysine N-methyltransferase, H3 lysine-9 specific 3 [1]: 8.43 and 7.75; IC50 ([1]; read-out: IC50 (value), Histone-lysine N-methyltransferase, H3 lysine-9 specific 3): 55 nM and 15 nM; IC50 ([1]; read-out: IC50 (value), Histone-lysine N-methyltransferase, H3 lysine-9 specific 5): 19 nM; IC50 ([1]; read-out: IC50 (value), Lysine-specific histone demethylase 1): 180 nM; Ki ([1]; read-out: Ki (value), Histone-lysine N-methyltransferase, H3 lysine-9 specific 3): 3.7 nM; pchembl_value (type IC50), Lysine-specific histone demethylase 1 [1, 3]: 6.75"
C[C@H](Oc1cc(-c2cnn(C3CCNCC3)c2)cnc1N)c1c(Cl)ccc(F)c1Cl [(S)-crizotinib],70.2,102,"IC50 ([1]; read-out: IC50 (value)): 680 nM; Ki ([1]; read-out: Ki (value)): 161 nM; pchembl_value (IC50) [1, 3]: 6.86 and 6.17; pchembl_value (Kd) [1, 3]: 7.43 and 6.28 and 7.41; pchembl_value (Ki) [1, 3]: 6.79"
COc1cc2c(cc1O)C(CCc1ccc(Cl)cc1)N(C)CC2 (stereo not shown) [Ro-04-5595],64,61,
O=C(NCCN1CCC2(CC1)C(=O)NCN2c1cccc(F)c1)c1ccc(F)c(F)c1 [ML-298],60.1,97,
CN1CC2c3ccccc3Oc3ccc(Cl)cc3C2C1 (stereo not shown) [asenapine maleate],65.2,66.1,
